Source: PubChem BioAssay AID330 (DTP/NCI, 2004)
Where “and” joins values, the source holds several entries; their conditions need not be identical. Equal entries are not always repeated. Toxic doses and inconclusive results are not listed. Rule for the calls: active = survival T/C of 150% or more; inactive = T/C below 125% in these data.

Tested on: P388 leukemia ip, CD2F1 mice, survival T/C
Assay: NCI In Vivo Anticancer Drug Screen. Data for tumor model P388 Leukemia (intraperitoneal) in CD2F1 (CDF1) mice
Conditions: endpoint: median survival time, higher = longer survival
How it was run: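 Mice carrying the transplanted tumor received test compound or vehicle. Survival was recorded in each group, and the value is the treated-group measurement divided by that of the vehicle-treated control group.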

[1] = dose: 100.0 mg/kg/injection, schedule: Q01DX009 (ip), vehicle: saline
[2] = dose: 200.0 mg/kg/injection, schedule: Q01DX009 (ip), vehicle: saline
[3] = dose: 400.0 mg/kg/injection, schedule: Q01DX009 (ip), vehicle: saline
[4] = dose: 50.0 mg/kg/injection, schedule: Q01DX005 (ip), vehicle: saline with Tween-80
[5] = dose: 100.0 mg/kg/injection, schedule: Q04DX003 (ip), vehicle: saline with Tween-80
[6] = dose: 200.0 mg/kg/injection, schedule: Q04DX003 (ip), vehicle: saline with Tween-80
[7] = dose: 50.0 mg/kg/injection, schedule: Q01DX009 (ip), vehicle: saline with Tween-80
[8] = dose: 100.0 mg/kg/injection, schedule: Q01DX009 (ip), vehicle: saline with Tween-80
[9] = dose: 200.0 mg/kg/injection, schedule: Q01DX009 (ip), vehicle: saline with Tween-80
[10] = dose: 50.0 mg/kg/injection, schedule: Q01DX005 (ip), vehicle: Klucel (hydroxypropylcellulose) (HPC)
[11] = dose: 100.0 mg/kg/injection, schedule: Q01DX005 (ip), vehicle: Klucel (hydroxypropylcellulose) (HPC)
[12] = dose: 200.0 mg/kg/injection, schedule: Q01DX005 (ip), vehicle: Klucel (hydroxypropylcellulose) (HPC)
[13] = dose: 60.0 mg/kg/injection, schedule: Q01DX005 (ip), vehicle: saline with Tween-80
[14] = dose: 120.0 mg/kg/injection, schedule: Q01DX005 (ip), vehicle: saline with Tween-80
[15] = dose: 240.0 mg/kg/injection, schedule: Q01DX005 (ip), vehicle: saline with Tween-80
[16] = dose: 25.0 mg/kg/injection, schedule: Q04DX003 (ip), vehicle: saline with Tween-80
[17] = dose: 50.0 mg/kg/injection, schedule: Q04DX003 (ip), vehicle: saline with Tween-80
[18] = dose: 25.0 mg/kg/injection, schedule: Q01DX009 (ip), vehicle: saline with Tween-80

Measured: T/C

Cc1cc(C(=O)NN)c(C#N)c(=O)[nH]1
inactive: [1] 100 % of control | [2] 109 % of control | [3] 90 % of control

O=C1CS(=O)(=O)CN1c1ccc(Cl)c(Cl)c1
inactive: dose: 50.0 mg/kg/injection, schedule: Q01DX005 (ip), vehicle: acetone 112 % of control | dose: 100.0 mg/kg/injection, schedule: Q01DX005 (ip), vehicle: acetone 109 % of control | dose: 200.0 mg/kg/injection, schedule: Q01DX005 (ip), vehicle: acetone 109 % of control

Cc1[nH]nc2c1NC(=O)OCC2
inactive: [4] 101 % of control | dose: 100.0 mg/kg/injection, schedule: Q01DX005 (ip), vehicle: saline with Tween-80 101 % of control | dose: 200.0 mg/kg/injection, schedule: Q01DX005 (ip), vehicle: saline with Tween-80 101 % of control

c1ccc(Sc2cccc3ccccc23)cc1
inactive: [5] 95 % of control | [6] 109 % of control | dose: 400.0 mg/kg/injection, schedule: Q04DX003 (ip), vehicle: saline with Tween-80 104 % of control

CCc1nnc2c(C)c(C)nc(C)n12
inactive: [5] 94 % of control | [6] 100 % of control

OC1CCOC1 (stereo not drawn)
inactive: dose: 6.25 mg/kg/injection, schedule: Q01DX009 (ip), vehicle: saline 95 % of control | dose: 12.5 mg/kg/injection, schedule: Q01DX009 (ip), vehicle: saline 97 % of control | dose: 25.0 mg/kg/injection, schedule: Q01DX009 (ip), vehicle: saline 100 % of control | dose: 50.0 mg/kg/injection, schedule: Q01DX009 (ip), vehicle: saline 101 % of control | [1] 101 % of control | [2] 98 % of control | [3] 94 % of control | dose: 800.0 mg/kg/injection, schedule: Q01DX009 (ip), vehicle: saline 96 % of control

NC(Cc1c[nH]c2ccc([N+](=O)[O-])cc12)C(=O)O (stereo not drawn)
inactive: [7] 92 % of control | [8] 91 % of control | [9] 94 % of control | dose: 400.0 mg/kg/injection, schedule: Q01DX009 (ip), vehicle: saline with Tween-80 91 % of control

NC(N)=NN=c1/c(=N\N=C(N)N)c2cc3ccccc3cc2/c1=N/N=C(N)N
inactive: dose: 6.25 mg/kg/injection, schedule: Q01DX001 (ip), vehicle: saline 102 % of control | dose: 12.5 mg/kg/injection, schedule: Q01DX001 (ip), vehicle: saline 96 % of control | dose: 25.0 mg/kg/injection, schedule: Q01DX001 (ip), vehicle: saline 96 % of control and 97 % of control

CN(C)c1nc(Cl)nc2c1nc(Cl)n2C1CCCCO1 (stereo not drawn)
inactive: [10] 93 % of control | [11] 90 % of control | [12] 102 % of control

Cc1nc(C(=O)OCc2ccccc2)cc(OCc2ccccc2)c1C
inactive: dose: 12.5 mg/kg/injection, schedule: Q01DX009 (ip), vehicle: distilled water + Tween-80 101 % of control | dose: 25.0 mg/kg/injection, schedule: Q01DX009 (ip), vehicle: distilled water + Tween-80 90 % of control | dose: 50.0 mg/kg/injection, schedule: Q01DX009 (ip), vehicle: distilled water + Tween-80 95 % of control | dose: 100.0 mg/kg/injection, schedule: Q01DX009 (ip), vehicle: distilled water + Tween-80 90 % of control | dose: 200.0 mg/kg/injection, schedule: Q01DX009 (ip), vehicle: distilled water + Tween-80 93 % of control

COc1ccc2c(c1)CN1C(CCC3c4ccccc4NC31)C2 (stereo not drawn)
inactive: [13] 99 % of control | [14] 95 % of control | [15] 95 % of control

Brc1nc(Br)c(Br)[nH]1
inactive: dose: 50.0 mg/kg/injection, schedule: Q01DX009 (ip), vehicle: saline sonified 91 % of control

CC(=N\O)/C(=N\O)C(=O)c1ccccc1
inactive: [7] 95 % of control | [8] 90 % of control | [9] 90 % of control

O=c1ssc2ncccc12
inactive: [13] 104 % of control | [14] 103 % of control | [15] 117 % of control

CNc1c([N+](=O)[O-])cc2[nH]cnc2c1[N+](=O)[O-]
inactive: [16] 97 % of control | [17] 95 % of control

NC(C[P+](=O)O)C(=O)O (stereo not drawn)
inactive: dose: 18.75 mg/kg/injection, schedule: Q01DX005 (ip), vehicle: water 103 % of control | dose: 37.5 mg/kg/injection, schedule: Q01DX005 (ip), vehicle: water 111 % of control | dose: 75.0 mg/kg/injection, schedule: Q01DX005 (ip), vehicle: water 91 % of control | dose: 150.0 mg/kg/injection, schedule: Q01DX005 (ip), vehicle: water 87 % of control

N#CC1(C#N)C2C=CC(C3CC=CC32)C1(C#N)C#N (stereo not drawn)
inactive: dose: 3.13 mg/kg/injection, schedule: Q01DX009 (ip), vehicle: Klucel (hydroxypropylcellulose) (HPC) 106 % of control | dose: 6.25 mg/kg/injection, schedule: Q01DX009 (ip), vehicle: Klucel (hydroxypropylcellulose) (HPC) 98 % of control | dose: 12.5 mg/kg/injection, schedule: Q01DX009 (ip), vehicle: Klucel (hydroxypropylcellulose) (HPC) 110 % of control | dose: 25.0 mg/kg/injection, schedule: Q01DX009 (ip), vehicle: Klucel (hydroxypropylcellulose) (HPC) 108 % of control

OCC1(c2ccncc2)OCCO1
inactive: dose: 50.0 mg/kg/injection, schedule: Q01DX005 (ip), vehicle: saline 101 % of control | dose: 100.0 mg/kg/injection, schedule: Q01DX005 (ip), vehicle: saline 104 % of control | dose: 200.0 mg/kg/injection, schedule: Q01DX005 (ip), vehicle: saline 92 % of control

CC(=O)c1nc(-c2ccccc2)[nH]c1C
inactive: [18] 101 % of control | [7] 104 % of control | [8] 105 % of control | [5] 99 % of control | [6] 90 % of control

CCOC(=O)CC(=O)OC(C)(C)C
inactive: [18] 97 % of control | [7] 106 % of control | [8] 104 % of control | [9] 100 % of control

COc1ccc(C2Oc3cc(O)c4c(=O)c5c(OC)cccc5oc4c3OC2CO)cc1O (stereo not drawn)
inactive: dose: 6.25 mg/kg/injection, schedule: Q01DX009 (ip), vehicle: saline + alcohol 111 % of control | dose: 12.5 mg/kg/injection, schedule: Q01DX009 (ip), vehicle: saline + alcohol 100 % of control | dose: 25.0 mg/kg/injection, schedule: Q01DX009 (ip), vehicle: saline + alcohol 100 % of control

COc1nc(N)nc2c1CSc1ccccc1-2
inactive: [10] 97 % of control | [11] 97 % of control | [12] 90 % of control

C=C(C)C12CC(C)C34OC5(CCCCCCCC(C)C6C(C)C(OC(=O)c7ccccc7)C(O)(C(O)C7(CO)OC7C3C1O5)C64)O2 (stereo not drawn)
inactive: dose: 3.0 micrograms/kg/injection, schedule: Q01DX009 (ip), vehicle: saline + alcohol 107 % of control | dose: 5.0 micrograms/kg/injection, schedule: Q01DX009 (ip), vehicle: saline + alcohol 109 % of control | dose: 10.0 micrograms/kg/injection, schedule: Q01DX009 (ip), vehicle: saline + alcohol 118 % of control

NC(=S)N1N=C(c2cccc([N+](=O)[O-])c2)CCC1=O
inactive: [16] 100 % of control | [17] 103 % of control | [5] 100 % of control | [6] 101 % of control

CCCOc1cc2c(cc1C(C)c1ccc(OCC)cc1)OCO2 (stereo not drawn)
inactive: dose: 12.5 mg/kg/injection, schedule: Q01DX005 (ip), vehicle: saline with Tween-80 100 % of control | dose: 25.0 mg/kg/injection, schedule: Q01DX005 (ip), vehicle: saline with Tween-80 110 % of control | [4] 115 % of control | [13] 105 % of control | [14] 113 % of control

Nc1ccccc1C(=O)N/N=C/c1cccnc1
inactive: [10] 100 % of control | [11] 98 % of control | [12] 98 % of control

O=[N+]([O-])C1C2C=CC(C2)C1C(Cl)(Cl)Cl (stereo not drawn)
inactive: dose: 0.19 mg/kg/injection, schedule: Q01DX009 (ip), vehicle: saline with Tween-80 101 % of control | dose: 0.39 mg/kg/injection, schedule: Q01DX009 (ip), vehicle: saline with Tween-80 100 % of control | dose: 0.78 mg/kg/injection, schedule: Q01DX009 (ip), vehicle: saline with Tween-80 98 % of control and 99 % of control
